Measured values published in US20250034216A1, “STEREOSELECTIVE COVALENT LIGANDS FOR ONCOGENIC AND IMMUNOLOGICAL PROTEINS” (The Scripps Research Institute, priority 2021, published 2025).
pIC50: −log10 of the molar value.

How the values were obtained:
[1] = molecular target: T1, recombinant FLAG-PSME1 (PSME1_C22) (Homo sapiens, UniProt Q06323); test: Gel-based ABPP for PSME1 cysteine engagement; type: binding; settings: HEK293T lysates expressing FLAG-PSME1, in vitro, then 2.5 μM MY-11B 30 min; read-out: IC50 for engaging PSME1_C22 (competition against MY-11B labeling)
T1 construct: FLAG (C); expressed in transfected cells; host or cells: HEK293T (lysate treated in vitro)
T1 sequence (Q06323 whole entry): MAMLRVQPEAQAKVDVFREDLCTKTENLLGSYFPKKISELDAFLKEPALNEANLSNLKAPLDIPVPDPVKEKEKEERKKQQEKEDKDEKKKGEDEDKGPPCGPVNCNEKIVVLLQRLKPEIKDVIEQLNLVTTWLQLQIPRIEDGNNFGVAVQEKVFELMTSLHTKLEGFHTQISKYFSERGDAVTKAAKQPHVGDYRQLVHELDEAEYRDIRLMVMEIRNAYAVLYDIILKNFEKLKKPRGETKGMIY
Description: C-terminally FLAG-tagged PSME1 WT or C22A were transiently expressed in HEK293T cells, harvested 48 hours later, then cells were divided into aliquots, flash frozen and stored at −80 C. On the day of the experiment, an aliquot of cells were thawed, lysed by sonication in ice-cold PBS supplemented with cOmplete protease inhibitors (1 tablet/10 mL of PBS). normalized to 2.0 mg/mL, and divided into 25 μL aliquots. 1 μL of DMSO or compound (25× stock) was incubated with lysates for 1.5 hours at RT, followed by incubation with 1 μL of 62.5 μM MY-11B click probe (final concentration […]) for an additional 30 minutes. Reagents for the CuAAC click reaction were pre-mixed prior to addition to the samples. After 1 hour of click labeling, 4×SDS running buffer was added to samples, which were then analyzed by SDS-PAGE. ImageJ was used to quantify rhodamine band intensities, and GraphPad PRISM Version 9.0.0 was used to generate IC50 curves (four-parameter variable slope least squares regression).

22Rv1 cells = test: Proliferation assay (CellTiter Glo); type: cell-based, human; settings: 72 h
Description: Cells were seeded at 5000 cells per well (50 μL medium) in 96-well flat bottom white wall plates. After 24 h, 50 μL of medium containing DMSO or compound dilutions (2× final concentration from 1000× stocks) were added to the wells. At the time of compound addition, a reference plate to determine the cell population density at time 0 (TO) was assayed using CellTiter Glo reagent (50 μL added to each well). After 72 h in culture, the remaining plates were assayed using CellTiter Glo. After 30 min of shaking at room temperature, luminescence was analyzed using a CLARIOstar (BMG Labtech) plate reader. Raw values were normalized using GraphPad PRISM software version 9.0.0. Lines of best fit were generated using a four-parameter variable slope least squares regression.

[2] = system: mRNA splicing in 22Rv1 cells; test: RNA sequencing, alternative splicing (rMATS); type: cell-based, human; settings: 8 hr, RNA-seq
Description: RNA sequencing libraries were prepared using the NEBNext Ultra II RNA Library Prep Kit for Illumina following manufacturer's instructions (NEB, Ipswich, MA, USA). mRNAs were first enriched with Oligo(dT) beads. Enriched mRNAs were fragmented for 15 minutes at 94° C. First strand and second strand cDNAs were subsequently synthesized. cDNA fragments were end repaired and adenylated at 3′ends, and universal adapters were ligated to cDNA fragments, followed by index addition and library enrichment by limited-cycle PCR. The sequencing libraries were validated on the Agilent TapeStation (Agilent Technologies, Palo Alto, CA, USA), and quantified by using Qubit 2.0 Fluorometer (Invitrogen, Carlsbad, CA) as well as by quantitative PCR (KAPA Biosystems, Wilmington, MA, USA). FASTQ files were first trimmed using Trim_galore (v0.6.4) to remove sequencing adapters and low quality (Q<15) reads. Trimmed sequencing reads were aligned to the human Hg19 reference genome (GENCODE, GRCh37.p13) using STAR (v2.7.5). SAM files were subsequently converted to BAM files, sorted, and indexed using samtools (v1.9). […] Read counting across genomic features was performed using featureCounts (part of the subread package; v1.5.0) using the following parameters: -p -T 20 -O -F GTF -t exon. […]
For quantification of alternative RNA splicing, BAM files generated by STAR/Samtools were analyzed using rMATS (v4.1.1) using the GENCODE (v19) GTF annotation for Hg19 (GRCh37.p13) and the following parameters: -t paired --libType fr-unstranded—readLength 150—novelSS. To utilize reads shorted than 150b.p. resulting from adapter and/or QC trimming by trim_galore, rMATS was programmed to accept soft-clipped reads of variable length. Enumeration of isoform counts was performed using only reads that span the splice junction directly. To identify high confidence AS events, events were considered significant if (i) the inclusion level difference was greater than 20% compared to DMSO, (ii) the False Discovery Rate (FDR) was smaller than 0.05, and (iii) there were a minimum of 20 reads mapping to the splice junction. […]

p27 = test: anti-p27 western blot; type: cell-based, human; settings: 22Rv1 cells, 24 h

| pIC50 [1] | pIC50 (22Rv1 cells; read-out: antiproliferative activity IC50) | SMILES | anti-proliferative effect (22Rv1 cells) | mRNA splicing changes [2] | fold greater antiproliferative activity than MY-7A (22Rv1 cells) | p27 expression (p27) |
| --- | --- | --- | --- | --- | --- | --- |
| ~6.40 |  | CC#CC(=O)N1C[C@H](c2ccc(Br)cc2)[C@@H]1C(=O)Nc1cccc2cccnc12 [MY-45B, (2R,3S)-3-(4-bromophenyl)-1-(but-2-ynoyl)-N-(quinolin-8-yl)azetidine-2-carboxamide] |  |  |  |  |
|  |  | C=CC(=O)N1[C@@H](c2ccc3c(c2)OCO3)c2[nH]c3ccccc3c2C[C@@H]1C(=O)N1CCOCC1 [WX-02-43, 1-((1S,3R)-1-(benzo[d][1,3]dioxol-5-yl)-3-(morpholine-4-carbonyl)-1,3,4,9-tetrahydro-2H-pyrido [3,4-b]indol-2-yl)prop-2-en-1-one] | inactive enantiomer | No such splicing effects were observed |  |  |
|  | 6.77 | C=CC(=O)N1[C@H](c2ccc3c(c2)OCO3)c2[nH]c3ccccc3c2C[C@H]1C(=O)N1CCOCC1 [WX-02-23, 1-((1R,3S)-1-(benzo[d][1,3]dioxol-S-yl)-3-(morpholine-4-carbonyl)-1,3,4,9-tetrahydro-2H-pyrido [3,4-b]indol-2-yl)prop-2-en-1-one] |  | induction of both intron retention and exon skipping events | ~4 fold | induced expression of p27 |
